Earlier results, collected in patent US20030216431A1, “Ophthalmic pharmaceutical compositions and methods for treating ocular inflammation” (priority 2002, published 2003).

Details: for daily dosage causing serious retinopathy: systemic use in patients, nearly all instances

time to onset of definite retinopathy (dosage slightly greater than 250 mg chloroquine diphosphate per day) | daily dosage causing serious retinopathy | duration of intake without clinically evident retinopathy (not exceeding 250 mg diphosphate or 200 mg sulfate per day) | Compound
one to three | more than 250 mg per day |  | CCN(CC)CCCC(C)Nc1ccnc2cc(Cl)ccc12 (stereo not shown) [chloroquine diphosphate, Quinoline, 7-chloro-4-((4-(diethylamino)-1-methylbutyl)amino)-, diphosphate]
 | > 200 mg per day |  | CCN(CC)CCCC(C)Nc1ccnc2cc(Cl)ccc12.O=S(=O)(O)O (stereo not shown) [chloroquine sulfate, Quinoline, 7-chloro-4-((4-(diethylamino)-1-methylbutyl)amino)-, sulfate]
 |  | nine | CCN(CC)CCCC(C)Nc1ccnc2cc(Cl)ccc12 (stereo not shown) [chloroquine, Chloroquine]
